The values that follow come from patent US8729031B2, “Compounds” (priority 2009, dated 2014).

For data set [1], the system named is E. faecium. The data set can be described thus: MIC susceptibility testing, vancomycin resistant Enterococci (E. faecium). It is filed as cell-based. On the procedure: (§1) Susceptibility testing with the exception of Streptococcus pneumoniae was performed by two-fold serial dilutions in Mueller Hinton Broth supplemented with 50 μg/mL Ca^2+. Susceptibility testing of S. pneumoniae was performed by two-fold serial dilutions in Brain-Heart-Infusion Broth supplemented with 50 μg/mL Ca^2+.

Data set [2] relates to E. faecalis. As to the kind of experiment: MIC susceptibility testing, vancomycin resistant Enterococci (E. faecalis). The class given is cell-based. The following applies: E. faecalis 9758512, vancomycin resistant. As to the method: as §1
The subject of data set [3] is Streptococcus pneumoniae. The data set can be described thus: microbe, parasite or virus in culture. It is filed as cell-based. On the procedure: as §1
Data set [4] has as its system Methicillin Resistant Staphylococcus aureus (MRSA, ATCC 33591). As to the kind of experiment: Neutropaenic mouse thigh infection model. The class given is in vivo. The conditions noted are these: for antimicrobial effect in thigh infection: IV at 5, 10, 20, 30 and 40 mg/Kg×2. On the procedure: In vivo efficacy of compounds of the present invention in the treatment of bacterial tissue infections was evaluated using a neutropaenic mouse thigh model. Groups of 6 male ICR mice weighing 24±2 g were used. Test animals were immunosuppressed by 2 intraperitoneal injections of cyclophosphamide, the first at 150 mg/Kg 4 days before infection (day-4) and the second at 100 mg/Kg 1 day before infection (day-1). On day 0, individual animals were inoculated intramuscularly (IM) into the right thigh of test animals with 1.15×10^5 CFU/mouse of Methicillin Resistant Staphylococcus aureus (MRSA, ATCC 33591) suspended in 100 μL of sterile PBS, pH 7.4. Vehicle and test substances were administered intravenously (IV) at a dose volume of 8 mL/Kg, 2 and 14 hours after thigh infection. Example 1a (Compound I) and vancomycin were dissolved in 15% hydroxypropyl-β-cyclodextrin/4.4% glucose/1 mM potassium phosphate buffer, pH 7.0 and administered at doses of 5, 10, 20, 30 and 40 mg/Kg. At 26 hours after inoculation, muscle of the right thigh of each test mouse was harvested. From an additional group with no treatment, muscle of the right thigh was harvested at 2 hours after inoculation for the basal CFU determination. The removed muscle tissues were then homogenized in 3-4 mL of PBS, pH 7.4 with a ceramic mortar. Homogenates of 0.1 mL were used for serial 10-fold dilutions and plated on Mueller Hinton broth in 1.5% Bacto agar for CFU determination.

For data set [5], the system named is Staphylococcus aureus methicillin resistant ATCC 33591. The data set can be described thus: Mouse bacteraemia model. It is filed as in vivo. On the procedure:
Groups of 6 male CD-1 (Crl.) derived mice weighing 24±2 g were used. Mice were inoculated intraperitoneally (IP) with an LD90-100 of Staphylococcus aureus methicillin resistant ATCC 33591 (1.1×10^7CFU/mouse) in 0.5 mL of BHI broth containing 5% mucin. The compound of example 1a and vancomycin were dissolved in 15% HPbetaCD/4.4% glucose/0.5 mM KH2PO4, pH 5.0 at doses of 1, 3, 5, 10 and 20 mg/Kg and were administered subcutaneously (SC) to test animals at 0, 2 and 24 hour(s) after bacteria challenge. The dosing volume was 5 mL/Kg. Mortality was recorded once daily for 7 days. The ED50 for each compound was determined by nonlinear regression.

Data set [6] can be described thus: In vivo plasma half-life in mice. The following applies: mouse, 29.76 mg/kg, male CD-1 mice, IV, 9.3 mL/Kg of 3.2 mg/mL solution. On the procedure: The in vivo half-life of Example 1a in mice was determined by measurement of its plasma concentrations at various time points following IV dosing. 18 male CD-1 mice aged 7-9 weeks were dosed IV with a 9.3 mL/Kg dose of a 3.2 mg/mL solution of Example 1a in 15% hydroxyl-propyl-β-cyclodextrin/4.4% glucose/1 mM potassium phosphate (pH=7.6). Plasma samples were obtained at 10, 20, 30, 60, 120 and 240 min post-dose, sampling from 3 animals at each time point. Concentrations of Example 1a in plasma were determined by LC-MS quantification.

The test system of data set [7] is S. aureus R33 (MRSA). It is filed as cell-based. The conditions noted are these: S. aureus R33 (MRSA). On the procedure:
as §1

In data set [8] the test system is S. aureus SH1000. It is filed as cell-based. The following applies: S. aureus SH1000. On the procedure: as §1

≈ marks a conversion by molar mass, not a printed value.

`CC[C@H](C)[C@@H]1NC(=O)[C@@H]2NC(=O)[C@H](CC(C)C)NC(=O)[C@H](NC(=O)[C@@H]3CSC[C@@H](N)C(=O)N[C@@H](CO)C(=O)NCC(=O)N[C@@H](Cc4c[nH]c5ccccc45)C(=O)N[C@@H](C(C)C)C(=O)N3)[C@H](C)SC[C@H](NC(=O)[C@H](CCC(=O)O)NC1=O)C(=O)NCC(=O)N[C@H]1C(=O)N[C@@H](CC(C)C)C(=O)N[C@@H](C(C)C)C(=O)N[C@@H](CS[C@H]2C)C(=O)N[C@@H](C)C(=O)N[C@H](C(=O)NCc2cc(Cl)cc(Cl)c2)CS[C@H]1C` [Example 1, Deoxyactagardine B (3,5-dichlorobenzylamine)monocarboxamide]: the MIC was 8 µg/mL (≈ 3.94 µM) in data set [1] (E. faecium 7662769, vancomycin resistant); 4 to 8 µg/mL in data set [1] (E. faecium 7860190, vancomycin resistant); 8 µg/mL (≈ 3.94 µM) in data set [1] (E. faecium 9710577, vancomycin resistant); 8 µg/mL (≈ 3.94 µM) in data set [2]; 2 µg/mL (≈ 0.984 µM) in data set [3] (isolate QB37301, penicillin Resistant); 1 µg/mL (≈ 0.492 µM) in data set [3] (isolate QB37302, penicillin Resistant). Moreover, the MIC in data set [3] (isolate QB37303, penicillin Intermediate) is 0.25 µg/mL (≈ 0.123 µM); in data set [3] (isolate QB37304, penicillin Susceptible), 0.25 µg/mL (≈ 0.123 µM); in data set [3] (isolate QB37305, penicillin Susceptible), 1 µg/mL (≈ 0.492 µM); in data set [3] (isolate QB37306, penicillin Susceptible), 0.25 to 0.5 µg/mL; in data set [3] (isolate QB37307, penicillin Intermediate) it was 0.5 to 1 µg/mL; in data set [3] (isolate QB37308, penicillin Susceptible) it was 0.25 to 0.5 µg/mL. Further, the MIC is 2 µg/mL (≈ 0.984 µM) in data set [3] (isolate QB37309, penicillin Resistant); 0.25 µg/mL (≈ 0.123 µM) in data set [3] (isolate QB37310, penicillin Resistant); 0.03 µg/mL (≈ 0.0148 µM) in data set [3] (isolate QB37311, penicillin Resistant); 0.5 µg/mL (≈ 0.246 µM) in data set [3] (isolate QB37312, penicillin Intermediate); 0.03 µg/mL (≈ 0.0148 µM) in data set [3] (isolate QB37313, penicillin Susceptible); 1 µg/mL (≈ 0.492 µM) in data set [3] (isolate QB37314, penicillin Resistant). In addition, the MIC is 0.25 µg/mL (≈ 0.123 µM) in data set [3] (isolate QB37315, penicillin Susceptible); 2 µg/mL (≈ 0.984 µM) in data set [3] (isolate QB37316, penicillin Susceptible); 0.25 µg/mL (≈ 0.123 µM) in data set [3] (isolate QB37317, penicillin Susceptible); 0.25 µg/mL (≈ 0.123 µM) in data set [3] (isolate QB37318, penicillin Resistant); 1 µg/mL (≈ 0.492 µM) in data set [3] (isolate QB37319, penicillin Resistant); 1 µg/mL (≈ 0.492 µM) in data set [3] (isolate QB37320, penicillin Intermediate).
Consider `CC[C@H](C)[C@@H]1NC(=O)[C@@H]2NC(=O)[C@H](CC(C)C)NC(=O)[C@H](NC(=O)[C@@H]3CSC[C@@H](N)C(=O)N[C@@H](CO)C(=O)NCC(=O)N[C@@H](Cc4c[nH]c5ccccc45)C(=O)N[C@@H](C(C)C)C(=O)N3)[C@H](C)SC[C@H](NC(=O)[C@H](CCC(=O)O)NC1=O)C(=O)NCC(=O)N[C@H]1C(=O)N[C@@H](CC(C)C)C(=O)N[C@@H](C(C)C)C(=O)N[C@@H](CS[C@H]2C)C(=O)N[C@@H](C)C(=O)N[C@H](C(=O)NCc2cc(Cl)cc(Cl)c2)CS[C@H]1C` [Example 1a], for which the “antimicrobial effect in thigh infection” value in data set [4] is listed as “significant antimicrobial effect”. Further, the “reduction in CFU/g” value in data set [4] (IV ×2 (2 and 14 h), 10 mg/kg and above, thigh muscle at 26 h) is listed as over 1000 fold. In addition, the survival rate in data set [5] (3 mg/Kg, SC) is 100%. In data set [5] (3, 5, 10 and 20 mg/Kg×3, SC), the “antimicrobial effect against S. aureus (MR) in mice” value is on record as “significant antimicrobial effect” and the “increase in survival rate” value is “at least 50%”. Besides, the “estimated ED50” value in data set [5] (SC at 0, 2 and 24 h after challenge, mortality over 7 days, nonlinear regression) is 1.07 mg/kg. Besides, in data set [6], the half-life is about 2 h.
With `CN[C@H](CC(C)C)C(=O)N[C@H]1C(=O)N[C@@H](CC(N)=O)C(=O)N[C@H]2C(=O)N[C@H]3C(=O)N[C@H](C(=O)N[C@H](C(=O)O)c4cc(O)cc(O)c4-c4cc3ccc4O)[C@H](O)c3ccc(c(Cl)c3)Oc3cc2cc(c3O[C@@H]2O[C@H](CO)[C@@H](O)[C@H](O)[C@H]2O[C@H]2C[C@](C)(N)[C@H](O)[C@H](C)O2)Oc2ccc(cc2Cl)[C@H]1O` [vancomycin, reference compound], the “antimicrobial effect in thigh infection” value in data set [4] was “significant antimicrobial effect”. Moreover, in data set [4] (IV ×2 (2 and 14 h), 30 mg/kg and above, thigh muscle at 26 h), the “reductions of CFU/g” value is given as over 100 fold. In addition, in data set [5] (3, 5, 10 and 20 mg/Kg×3, SC), the “antimicrobial effect against S. aureus (MR) in mice” value is “significant antimicrobial effect”. Moreover, the ED50 in data set [5] (Staphylococcus aureus, ATCC33591, SC at 0, 2 and 24 h after challenge, mortality over 7 days, nonlinear regression, read-out: estimated ED50) was 3 mg/kg.
With `CC[C@H](C)[C@@H]1NC(=O)[C@@H]2NC(=O)[C@H](CC(C)C)NC(=O)[C@H](NC(=O)[C@@H]3CSC[C@@H](N)C(=O)N[C@@H](CO)C(=O)NCC(=O)N[C@@H](Cc4c[nH]c5ccccc45)C(=O)N[C@@H](C(C)C)C(=O)N3)[C@H](C)SC[C@H](NC(=O)[C@H](CCC(=O)O)NC1=O)C(=O)NCC(=O)N[C@H]1C(=O)N[C@@H](CC(C)C)C(=O)N[C@@H](C(C)C)C(=O)N[C@@H](CS[C@H]2C)C(=O)N[C@@H](C)C(=O)N[C@H](C(=O)NCCCNCCCNCc2cc(Cl)cc(Cl)c2)CS[C@H]1C` [Example 20, Deoxyactagardine B [3-(3′-(3″,5″-dichlorobenzylamino)propylamino)propylamine]monocarboxamide], the “MIC in μg/mL against strain S. aureus R33 (MRSA)” value in data set [7] was determined as 8 µg/mL (≈ 3.73 µM). Moreover, in data set [8], the “MIC in μg/mL against strain S. aureus SH1000” value was determined as 8 µg/mL (≈ 3.73 µM).
